Tests used:
[1] = refractive index (Na D-line) (dimensionless); conditions: 298.15 K; 101.3 kPa; Liquid; Standard Abbe refractometry
[2] = Liquid; for mass density: 298.15 K, 101.3 kPa, Vibrating tube method; for vapor or sublimation pressure: Ebulliometric method (Recirculating still)
[3] = xn = mol fraction of the nth substance listed; conditions: 298.15 K, 101.3 kPa, Liquid, Vibrating tube method

CC(C)CC(C)(C)C [2,2,4-trimethylpentane]
Conditions	mass density [kg/m3]	refractive index
[1]	–	1.38905
[2]	687.8	–

[2]
Conditions	vapor or sublimation pressure [kPa]
371.91 K	100
504.65 K	1500

CCCCCCC [heptane] + CCOC(C)=O
Conditions	mass density [kg/m3]
[3], x2 = 0	679.7

CCCCCCC [heptane] + COC(C)=O
Conditions	mass density [kg/m3]
[3], x2 = 0	679.7

CCOC(C)=O [ethyl acetate] + CCCCCCC
[3]
Conditions	mass density [kg/m3]
x1 = 0.0642	687.5
x1 = 0.071	688.3
x1 = 0.125	695.2
x1 = 0.1274	695.8
x1 = 0.1932	705.1
x1 = 0.2136	708.2
x1 = 0.3294	726.7
x1 = 0.3874	736.7
x1 = 0.4593	750.2
x1 = 0.5966	778.8
x1 = 0.6582	793.2
x1 = 0.6841	799.3
x1 = 0.7001	803.7
x1 = 0.7346	812.6
x1 = 0.8029	830.8
x1 = 0.8272	837.6
x1 = 0.8471	843.6
x1 = 0.9069	862.1
x1 = 0.9631	880.7
x1 = 1	894.4

COC(C)=O [methyl ethanoate] + CC(C)CC(C)(C)C
[3]
Conditions	mass density [kg/m3]
x1 = 0.0646	693.5
x1 = 0.0822	695.3
x1 = 0.0859	695.7
x1 = 0.0992	697
x1 = 0.1566	703.6
x1 = 0.1941	707.9
x1 = 0.208	709.7
x1 = 0.224	711.7
x1 = 0.2636	717.1
x1 = 0.2688	717.7
x1 = 0.2957	721.6
x1 = 0.3211	725.4
x1 = 0.3319	727
x1 = 0.3956	737.4
x1 = 0.5015	757.3
x1 = 0.578	774
x1 = 0.5792	774.3
x1 = 0.6528	792.8
x1 = 0.6958	804.5
x1 = 0.7268	813.9
x1 = 0.7611	824.8
x1 = 0.7834	832.2
x1 = 0.8161	843.6
x1 = 0.8466	855.3
x1 = 0.848	855.8
x1 = 0.8628	861.6
x1 = 0.8632	861.9
x1 = 0.8889	872.5
x1 = 0.9179	885.5
x1 = 0.9388	895.1
x1 = 0.9406	895.7
x1 = 0.9456	898.3
x1 = 0.9574	904.3
x1 = 1	927.1

COC(C)=O [methyl ethanoate] + CCCCCCC
[3]
Conditions	mass density [kg/m3]
x1 = 0.0579	685.5
x1 = 0.0789	687.8
x1 = 0.0926	689.7
x1 = 0.1276	694.1
x1 = 0.1562	697.4
x1 = 0.1662	698.8
x1 = 0.1998	703.2
x1 = 0.2413	709.3
x1 = 0.2652	712.7
x1 = 0.2914	716.8
x1 = 0.3583	728.4
x1 = 0.4171	739
x1 = 0.43	741.6
x1 = 0.4682	749.3
x1 = 0.506	757.3
x1 = 0.5357	764
x1 = 0.584	775.6
x1 = 0.6338	788.4
x1 = 0.715	811.7
x1 = 0.7194	813
x1 = 0.7256	814.9
x1 = 0.7698	829
x1 = 0.7996	839.2
x1 = 0.8104	843.3
x1 = 0.8285	850.2
x1 = 0.8537	859.8
x1 = 0.8558	860.5
x1 = 0.8898	874.1
x1 = 0.901	879.1
x1 = 0.9172	885.8
x1 = 0.9284	890.8
x1 = 0.9598	905.6
x1 = 0.9631	907.4
x1 = 0.9735	912.8
x1 = 1	927.1

CCCCCCC [heptane]
Conditions	mass density [kg/m3]	refractive index
[1]	–	1.38527
[2]	679.7	–

Conditions	vapor or sublimation pressure [kPa]
[2], 498.65 K	1500

COC(C)=O [methyl ethanoate]
Conditions	mass density [kg/m3]	refractive index
[1]	–	1.35875
[2]	927.1	–

[2]
Conditions	vapor or sublimation pressure [kPa]
329.99 K	100
436.08 K	1500

CC(C)CC(C)(C)C [2,2,4-trimethylpentane] + COC(C)=O
Conditions	mass density [kg/m3]
[3], x2 = 0	687.8

CCOC(C)=O [ethyl acetate] + CC(C)CC(C)(C)C
Conditions	mass density [kg/m3]
[3], x1 = 1	894.4

CC(C)CC(C)(C)C [2,2,4-trimethylpentane] + CCOC(C)=O
[3]
Conditions	mass density [kg/m3]
x2 = 0	687.8
x2 = 0.0627	694.4
x2 = 0.1027	699
x2 = 0.1524	704.9
x2 = 0.2008	711.1
x2 = 0.272	721
x2 = 0.3528	733.3
x2 = 0.386	738.7
x2 = 0.4349	747.1
x2 = 0.4568	751
x2 = 0.5071	760.4
x2 = 0.5362	766.1
x2 = 0.6042	780.2
x2 = 0.7014	802.6
x2 = 0.7603	817.7
x2 = 0.8488	842.7
x2 = 0.8968	857.9
x2 = 0.9273	868.1
x2 = 0.9465	874.7

CCOC(C)=O [ethyl acetate]
Conditions	mass density [kg/m3]	refractive index
[1]	–	1.36981
[2]	894.4	–

[2]
Conditions	vapor or sublimation pressure [kPa]
350.19 K	100
462.75 K	1500
